Source: PubChem BioAssay (NCI)
Several values for one entry are separate records, joined by “and”; a condition that tells them apart may be missing. Identical values can stand only once.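 Results reflect a 48-hour exposure of cells in 96-well plates to compound at five concentrations. GI50 = concentration required for 50% inhibition of growth. TGI is the concentration that stops growth completely.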

How the values were obtained:
Test in all cases: NCI anticancer screen, dose series, 48 h
[1] = system: OVCAR-5 ovarian
[2] = system: OVCAR-8 ovarian
[3] = system: SK-MEL-28 melanoma
[4] = system: COLO 205 colon
[5] = system: SK-MEL-5 melanoma
[6] = system: OVCAR-3 ovarian
[7] = system: OVCAR-4 ovarian
[8] = system: SNB-19 CNS
[9] = system: ACHN renal
[10] = system: K-562 leukemia

SMILES | TGI [1] [µM] | TGI [2] | TGI [3] | TGI [4] | TGI [5] [µM] | TGI [6] | TGI [7] | TGI [8] [µM] | TGI [9] | TGI [10] | GI50 [1] [µM] | GI50 [2] [µM] | GI50 [3] [µM] | GI50 [4] [µM] | GI50 [5] [µM] | GI50 [6] [µM] | GI50 [7] [µM] | GI50 [8] [µM] | GI50 [9] [µM] | GI50 [10] [µM]
CCOC(=O)/C(O)=C(/c1n[nH]c(=O)c2ccccc12)[N+](=O)[O-] | > 100 | > 100 µM | > 100 µM | > 100 µM | > 100 | > 100 µM | > 100 µM | > 100 | > 100 µM | > 100 µM |  |  |  |  |  |  |  |  |  | 
CCOC(=O)C12CCCC1(O)N(NC(=O)c1ccccc1)C(C)=C2C(=O)OC (stereo unspecified) | > 100 | > 100 µM |  | > 100 µM |  | > 100 µM | > 100 µM | > 100 | > 100 µM | > 100 µM |  |  |  |  |  |  |  |  |  | 
CC(=O)[CH-]C(=O)c1ccccc1.CC(=O)[CH-]C(=O)c1ccccc1.CC[O-].CC[O-].[Zr+4] | > 100 | > 100 µM | > 100 µM | > 100 µM | > 100 | > 100 µM | > 100 µM | > 100 | > 100 µM | > 100 µM | > 100 | > 100 | > 100 | > 100 | > 100 | > 100 | > 100 | > 100 | > 100 | > 100
Nc1nc(N)c(N=O)c(Nc2ccc(O)cc2)n1 | > 26.1 | > 100 µM | > 100 µM | > 100 µM | > 100 | > 100 µM | > 100 µM | > 100 | > 86.1 µM | > 92.1 µM |  |  |  |  |  |  |  |  |  | 
C=C1C(=O)O[C@H]2[C@H]1CC/C(COC(=O)CCCCC(=O)OC/C1=C/CC[C@@]3(C)O[C@H]3[C@H]3OC(=O)C(=C)[C@@H]3CC1)=C\CC[C@@]1(C)O[C@@H]21 | 5.94 | 11 µM | > 100 µM | 3.31 µM | 7.73 | 2.14 µM | > 100 µM | > 100 |  | > 100 µM | 2.32 | 2.76 | 2.85 | 1.29 | 2.6 | 0.84 | 3.01 | 5.99 |  | 1.87
COc1ccc(N(CC(=O)NCCC[Te]c2ccccc2)C(=O)c2ccccc2)cc1 | 11.4 | 8.12 µM | 15.6 µM | 6.03 µM | 6.08 | 19.8 µM | 25.2 µM | 59 | 9.6 µM | > 100 µM | 3.8 | 3.03 | 4.33 | 2.58 | 2.4 | 5.75 | 11.9 | 4.06 | 3.17 | 5.17
COc1ccc(C(=O)C(c2ccc(OC)cc2)C2(O)C(=O)Nc3ccccc32)cc1 (stereo unspecified) |  |  | > 100 µM |  |  | > 100 µM |  | > 100 | > 100 µM | > 100 µM |  |  |  |  |  |  |  |  |  | 
CC(=O)OC(/C=C1/C=CC(=O)O1)COC(=O)c1ccccc1 (stereo unspecified) | > 31.2 | > 31.2 µM | > 31.2 µM | > 31.2 µM | > 31.2 | > 31.2 µM | > 31.2 µM | > 31.2 | > 31.2 µM | > 31.2 µM |  |  |  |  |  |  |  |  |  | 
CCC(C)(C)C(=O)O[C@H]1C[C@@H](C)C=C2C=C[C@H](C)[C@H](CC[C@@H]3C[C@@H](O)CC(=O)O3)[C@H]21 | 22.9 | 18.2 µM and 20.6 µM | 18.8 µM and > 30 µM | 14.7 µM and 23.6 µM | 7.87 | 21.4 µM and > 30 µM | 20.5 µM and > 30 µM | 19.9 | 10.3 µM and 2.38 µM | 22.8 µM and > 30 µM | 9.19 |  | 5.05 | 4.14 | 2.23 | 8.77 | 6.1 | 3.13 | 0.882 | 5.53
O=C1NN(c2ccc(C(=O)O)cc2)C(=O)/C1=C\c1ccc([N+](=O)[O-])o1 | > 100 | > 100 µM | > 100 µM | 38.8 µM | > 100 | 42.3 µM |  | > 100 | 55.3 µM | 72.1 µM | > 100 | 51.1 | > 100 | 20.9 | > 100 | 20.9 |  | > 100 | 24.4 | 27.3
[O-]c1c2c(nn1-c1ccccc1)c1ccccc1c[n+]2Cc1ccccc1 | > 100 | > 100 µM | > 100 µM | > 100 µM | > 100 | > 100 µM | > 100 µM | > 100 | > 100 µM | > 100 µM |  |  |  |  |  |  |  |  |  | 
Oc1ccc2cc(Br)ccc2c1-c1c(O)ccc2cc(Br)ccc12 | 15.6 | 15.4 µM | 13.1 µM | 3.38 µM | 3.74 | 9.77 µM | 14.6 µM | 15.9 | 11.3 µM | 11.1 µM | 4.23 | 3.9 | 3.68 | 1.77 | 1.87 | 3.21 | 4.89 | 3.92 | 3.02 | 2.88
COc1cc(/C=C2/C(=O)N(C(=O)OC(C)C)C(Cc3cc(OC)c(OC)c(C)c3OC)C(=O)N2Cc2ccccc2)c(OC)c(C)c1OC (stereo unspecified) | > 100 | > 100 µM | > 100 µM | > 100 µM | > 100 | > 100 µM | > 100 µM |  | > 100 µM | > 100 µM |  |  |  |  |  |  |  |  |  | 
COc1ccccc1OCC(=O)Nc1sc2c(c1C(N)=O)CCC2 | > 100 | > 100 µM | > 100 µM | > 100 µM | > 100 | > 100 µM | > 100 µM | > 100 | > 100 µM | > 100 µM | > 100 | 12.7 | > 100 | > 100 | 70.6 | > 100 | > 100 | > 100 | > 100 | > 100
O=C(O)/C=C/n1c2ccccc2c(=O)c2ccccc21 | > 100 | > 100 µM | > 100 µM | > 100 µM |  | > 100 µM | > 100 µM | > 100 | > 100 µM | > 100 µM |  |  |  |  |  |  |  |  |  | 
COc1cc2c3c(n(CCCCOC(=O)C(F)(F)F)c(=O)c2cc1OC)-c1cc2c(cc1C3=O)OCO2 | > 100 | > 100 µM | > 100 µM | > 100 µM | > 100 | > 100 µM | > 100 µM | > 100 | > 100 µM | > 100 µM | > 100 | > 52.6 | > 100 | > 100 | > 100 | > 89.8 | > 100 | > 100 | > 48.3 | > 50.4
